Measured values: publication PMC3358306 (PLoS ONE, 2012)

Biological target: T1, afRio1 (Rio1 kinase) (Archaeoglobus fulgidus, UniProt O28471)
T1 construct: full-length
Assay: thermal shift (Thermofluor), Tm […] to […] °C
Assay type: binding

T1 sequence (O28471 whole entry): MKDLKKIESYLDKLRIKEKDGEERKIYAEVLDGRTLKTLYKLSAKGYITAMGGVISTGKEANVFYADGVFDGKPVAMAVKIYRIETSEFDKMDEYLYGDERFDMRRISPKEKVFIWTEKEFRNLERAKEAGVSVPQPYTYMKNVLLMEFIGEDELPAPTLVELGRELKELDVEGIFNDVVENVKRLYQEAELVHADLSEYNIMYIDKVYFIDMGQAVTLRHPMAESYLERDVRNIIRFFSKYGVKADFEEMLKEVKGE

NC(=O)c1cn([C@@H]2O[C@H](CO)[C@@H](O)[C@H]2O)c2ncnc(N)c12 [sangivamycin]
thermal shift (Thermofluor), Tm 76 to 82 °C: 82 °C
